Like-named read-outs stand apart in the source and are kept apart here.
Assays:
dispersed islet cells = assay: cADDis cAMP concentration-response in dispersed islets; type: cell-based, mouse; details: for EC50: three-parameter fit, n=5, read-out: calculated EC50, cAMP in dispersed islets
Description: (§1) Primary cultures of mouse hypothalamic neurons and dispersed pancreatic islets were transduced with the Green Up cADDis biosensor (Montana Molecular, US). Pancreatic islets from CAMPER^Pdx−1-CreERT2 and CAMPER^Som-Cre mice were not transduced. Cells were pre-treated with peptides as specified, dissolved in culture media. Following 4 h or overnight incubation and a 1-hour washout period, cells were imaged using an epifluorescence microscope at baseline (t = 3 min), following peptide addition (t = 10 min, unless specified otherwise), and following 3-isobutyl-1-methylxanthine (IBMX) (500 μM) and forskolin (FSK) (50 μM) addition (t = 3 min) to maximally stimulate the sensor. In pre-treatment experiments, islet cell fluorescence was normalised to the IBMX/FSK response which was set as 100%. In non-pre-treatment experiments, islet and neuronal cell fluorescence was normalised to both the baseline and IBMX/FSK response. The area-under-the-curve (AUC) for each cell was quantified. Full details of isolation, transduction, plating, imaging and image analysis is provided in the supplementary methods.
Dispersed islets: A cell suspension of dispersed islets in RPMI-1640 + 10% FBS + 1% P/S (islet complete media) was seeded onto square 96 well µ-plates (Ibidi, UK), coated with 0.01% poly-D-lysine hydrobromide (Sigma-Aldrich, UK) and 25 µg/ml mouse laminin (Thermo Fisher, UK). For cADDis experiments, cells were transduced with the Green Up cADDis biosensor (15 μL of cADDis, 1.5 μL of sodium butyrate per well: Montana Molecular, US). Cells were incubated overnight (37°C, 95%:5% O2:CO2 ratio).
Cells were imaged in Krebs buffer with 6 mM glucose and 0.1% BSA (unless 10% FBS was specified) at 37°C using an automated epifluorescence microscope (modified Nikon Ti-2E with LED illumination). Multiple fields of view (FOV) were imaged in parallel (for islets, multiple wells of a 96 well plate were imaged in parallel), allowing hundreds to thousands of cells to be imaged every minute throughout the time course. For all acquisitions, the first three minutes were baseline recording pre-peptide addition and the last three minutes were a positive control following IBMX (500 μM) and forskolin (50 μM) addition to maximally stimulate the sensor.
cAMP quantification from the raw islet/neuronal images was performed using Fiji v1.54f (NIH). For each acquisition, a flat-field (BaSiC [3*]) correction was applied, and intensity thresholding enabled cell-containing regions to be identified as regions-of-interest (ROIs). The fluorescence intensity of each ROI was measured at each time point. In pre-treatment experiments, islet cell fluorescence was normalised to the maximal IBMX/FSK response which was set as 100%. For non-pre-treatment experiments, neuronal and islet cell fluorescence were normalised to both the baseline and maximal IBMX/FSK response. The AUC during peptide stimulation for each cell was quantified. Neurons with an AUC greater than 75 (representing a response 15 % of the maximum IBMX/FSK response) were deemed responder neurons.
We aimed to determine appropriate pre-treatment doses of GIPR agonists which would produce detectable cAMP responses, indicating target engagement, and were compatible with an extended incubation in complete medium, which could influence ligand availability via binding to serum proteins. We first performed concentration-response analysis in dispersed islets transduced with cADDis in the presence of 10% FBS (Figure S2A, B, D, E).
To determine a sensible re-challenge dose of GIPR agonists, a further concentration-response analysis was conducted in cADDis-transduced dispersed islets in imaging buffer (Krebs buffer + 6 mM glucose + 0.1% BSA, i.e. without FBS) (Figure S2C, F). […] Therefore, 1 μM of GIP108 and 100 nM of GIP were chosen as peri-maximal re-stimulation doses for the remaining islet cAMP assays.
GLP-1R agonist pre-treatment dose selection was performed concurrently with GIPR agonist dose selection.

[1] = Peptide stability in complete medium with dispersed islet cells (cAMP bioactivity assay); type: in vitro ADME, mouse
Description: AD-293 cells were added to a 12-well plate and maintained in 2 ml complete DMEM. 1 μg of specified plasmid DNA was added to each well alongside Lipofectamine 2000 (Thermo Fisher, UK). cAMP production was quantified 24 hours following transfection using homogenous time resolved fluorescence (HTRF), specifically the cAMP-Gs Dynamic 2 kit (Cisbio, France). Peptides and cells were diluted in DMEM + 1% P/S + 0.1% BSA. For peptide stability testing, cells, fresh peptide and peptide incubated with dispersed islet cells were diluted in RPMI-1640 (Thermo Fisher, UK) + 10% FBS + 1% P/S. 10 μl of peptide and 10 μl of cell suspension were added in duplicate to an opaque 96-well plate (Grenier Bio-One, Austria) and incubated at 37°C for 30 minutes. 10 μl of cAMP-d2 and anti-cAMP cryptate, both diluted in lysis buffer, were added in quick succession as per the manufacturer’s protocol. The plates were then incubated at room temperature for 45 minutes and read using the SpectraMax i3x (Molecular Devices, US).
Three-parameter curve fitting was applied.

GLP-1R = biological target: T1, GLP-1R (Mus musculus, UniProt O35659); assay: Ex vivo islet GLP-1R desensitisation (pre-treat/washout/rechallenge cAMP); type: cell-based; details: dispersed islets, cADDis
T1 construct: from tissue; host or cells: dispersed mouse pancreatic islets
T1 sequence (O35659 22-463): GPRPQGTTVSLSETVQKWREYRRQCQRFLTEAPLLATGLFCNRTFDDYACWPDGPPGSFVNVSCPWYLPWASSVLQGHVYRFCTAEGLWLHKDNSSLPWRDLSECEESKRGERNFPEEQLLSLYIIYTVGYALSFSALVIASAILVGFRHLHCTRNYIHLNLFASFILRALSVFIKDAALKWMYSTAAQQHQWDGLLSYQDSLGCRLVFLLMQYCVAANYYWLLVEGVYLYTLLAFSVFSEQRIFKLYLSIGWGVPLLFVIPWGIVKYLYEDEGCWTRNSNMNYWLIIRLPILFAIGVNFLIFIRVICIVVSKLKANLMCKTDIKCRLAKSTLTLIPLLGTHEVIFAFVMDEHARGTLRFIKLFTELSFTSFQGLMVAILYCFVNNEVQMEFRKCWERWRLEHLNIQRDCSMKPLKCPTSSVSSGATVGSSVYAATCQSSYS
Description: as §1, with “Full details of isolation, transduction, plating, imaging and image analysis is provided in the supplementary methods.” left out
(§2) cAMP quantification from the raw islet/neuronal images was performed using Fiji v1.54f (NIH). […] The fluorescence intensity of each ROI was measured at each time point. In pre-treatment experiments, islet cell fluorescence was normalised to the maximal IBMX/FSK response which was set as 100%. […] The AUC during peptide stimulation for each cell was quantified. […]

β2-adrenergic receptor = assay: Ex vivo islet heterologous desensitisation, isoproterenol rechallenge cAMP; type: cell-based, mouse; details: 24-hour pre-treatment with GIP108 (1 μM); dispersed islets, cADDis, n=3
Description: as §1, with “Full details of isolation, transduction, plating, imaging and image analysis is provided in the supplementary methods.” left out
as §2

[2] = tested on: murine hypothalamic neurons; assay: cADDis cAMP imaging in primary hypothalamic neurons; type: cell-based, mouse; details: 5-minute stimulation, n=4
Description: as §1
Primary cultures of hypothalamic neurons were prepared from 6-week-old male and female mice as described previously [2*]. A minor difference was that the neuronal pellet was resuspended in Neurobasal-A medium containing 0.25% Glutamax, 2% B27 and 25 ng/ml NGF (all Thermo Fisher, UK) (neuronal culture media).
Hypothalamic neurons: 100 μL cell suspension of neurons in neuronal culture media was seeded on 35 mm petri dish (MatTek Corporation), pre-coated with 0.01% poly-D-lysine hydrobromide. […]
cAMP quantification from the raw islet/neuronal images was performed using Fiji v1.54f (NIH). […] The fluorescence intensity of each ROI was measured at each time point. In pre-treatment experiments, islet cell fluorescence was normalised to the maximal IBMX/FSK response which was set as 100%. For non-pre-treatment experiments, neuronal and islet cell fluorescence were normalised to both the baseline and maximal IBMX/FSK response. The AUC during peptide stimulation for each cell was quantified. […]

[3] = imaging buffer (Krebs + 6 mM glucose + 0.1% BSA, without FBS)
[4] = in the presence of 10% FBS, stepwise addition

| Compound | doses above which cAMP responses were detectable (dispersed islet cells; [3]) | EC50 (dispersed islet cells; imaging buffer (Krebs buffer + 6 mM glucose + 0.1% BSA, without FBS)) | doses above which cAMP responses were detectable (dispersed islet cells; in the presence of 10% FBS) | EC50 (dispersed islet cells; [4]) | stability at 24 hours ([1]; 1 μM in complete medium with dispersed islet cells, cAMP bioactivity in mouse GIPR AD-293 cells) | concentration remaining from 500 nM after 24 hours ([1]; peptide at 1 μM in complete medium (RPMI-1640 + 10% FBS + 1% P/S) with dispersed islet cells, 24 h, concentrations halved during assay, read-out cAMP in mouse GIPR-expressing AD-293 cells, n=4) | cAMP response to GLP-1 (100 nM) after GIP108 pre-treatment (GLP-1R; 24-hour pre-treatment with GIP108 (1 μM), n=3) | cAMP response to isoproterenol (1 μM) after GIP108 pre-treatment (β2-adrenergic receptor) | cAMP response of hypothalamic neurons ([2]; 100 nM and 1 μM) | concentration remaining from 500 nM after 24 hours [1] | GLP-1R desensitisation after 4 h pre-treatment (GLP-1R; pre-treatment GLP-1 (10 nM), rechallenge GLP-1 (1 nM), n = 3) | cAMP response of hypothalamic neurons ([2]; 10 and 100 nM) |
| --- | --- | --- | --- | --- | --- | --- | --- | --- | --- | --- | --- | --- |
| CC[C@H](C)[C@H](NC(=O)[C@H](CO)NC(=O)[C@H](Cc1ccc(O)cc1)NC(=O)[C@H](CC(=O)O)NC(=O)[C@H](CO)NC(=O)[C@@H](NC(=O)[C@H](Cc1ccccc1)NC(=O)[C@@H](NC(=O)CNC(=O)[C@H](CCC(=O)O)NC(=O)C(C)(C)NC(=O)[C@@H](N)Cc1ccc(O)cc1)[C@@H](C)O)[C@@H](C)CC)C(=O)N[C@@H](C)C(=O)N[C@@H](CC(C)C)C(=O)N[C@@H](CC(=O)O)C(=O)N[C@@H](CCCCN)C(=O)N[C@H](C(=O)N[C@@H](Cc1c[nH]cn1)C(=O)N[C@@H](CCC(N)=O)C(=O)N[C@@H](CCC(N)=O)C(=O)N[C@@H](CC(=O)O)C(=O)N[C@@H](Cc1ccccc1)C(=O)N[C@H](C(=O)N[C@@H](CC(N)=O)C(=O)N[C@@H](Cc1c[nH]c2ccccc12)C(=O)N[C@@H](CC(C)C)C(=O)N[C@@H](CC(C)C)C(=O)N[C@@H](C)C(=O)N[C@@H](CCC(N)=O)C(=O)N[C@@H](CCCCN)C(=O)NCC(=O)N[C@@H](CCCCNC(=O)CC[C@H](NC(=O)CCCCCCCCCCCCCCCCCCC(=O)O)C(=O)O)C(=O)N[C@@H](CCCCN)C(=O)N[C@@H](CC(N)=O)C(=O)N[C@@H](CC(=O)O)C(=O)N[C@@H](Cc1c[nH]c2ccccc12)C(=O)N[C@@H](CCCCN)C(=O)N[C@@H](Cc1c[nH]cn1)C(=O)N[C@@H](CC(N)=O)C(=O)N[C@H](C(=O)N[C@H](C(=O)N[C@@H](CCC(N)=O)C(=O)O)[C@@H](C)O)[C@@H](C)CC)C(C)C)[C@@H](C)CC [GIP108] | above 10 nM | 218 nM | above 100 nM | 1960 nM | remained partially stable at 24 hours | 215 nM | small but significant decrease | remained intact | failed to show detectable responses |  |  |  |
| GLP-1(7–36)·NH2 | above 0.1 nM |  | above 0.1 nM | 0.295 nM |  |  |  |  |  | 0.177 nM | partial GLP-1R desensitisation, this was not statistically significant | significant responses |
